Measured values reported in PubChem BioAssay (NCI).
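Briefly, cells in 96-well plates were exposed to five compound concentrations for 48 h, and endpoints were estimated by linear interpolation. At the GI50, growth is halved. TGI denotes the concentration required for complete inhibition of growth.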

Columns and labels:
Assay in all cases: NCI anticancer screen, dose series, 48 h
[1] = test system: NCI-H460 lung
[2] = test system: NCI-H522 lung
[3] = test system: NCI-H23 lung
[4] = test system: UACC-257 melanoma
[5] = test system: HL-60(TB) leukemia
[6] = test system: SF-539 CNS
[7] = test system: HCT-15 colon
[8] = test system: SK-MEL-2 melanoma
[9] = test system: HOP-92 NSCLC
[10] = test system: SNB-75 CNS
[11] = test system: SN12C renal
[12] = test system: DU-145 prostate
[13] = test system: NCI/ADR-RES ovarian
[14] = test system: RPMI-8226 leukemia
[15] = test system: NCI-H226 lung
[16] = test system: MDA-MB-435

Row | SMILES | TGI [1] [µM] | TGI [2] [µM] | TGI [3] [µM] | TGI [4] [µM] | TGI [5] [µM] | TGI [6] [µM] | TGI [7] [µM] | TGI [8] [µM] | TGI [9] [µM] | TGI [10] [µM] | TGI [11] [µM] | TGI [12] [µM] | TGI [13] [µM] | TGI [14] [µM] | TGI [15] [µM] | TGI [16] [µM] | GI50 [14] [µM]
1 | CCC1(N=[N+]=[N-])C(=O)Nc2cc(C)ccc2C1=O (stereo not drawn) | > 100 | 15.6 | > 100 | > 100 | 53.6 | > 100 | > 100 | > 100 | > 100 | > 100 | > 100 | – | – | – | – | – | –
2 | CC(C)(C)N1NC1C1NN1C(C)(C)C (stereo not drawn) | > 100 | > 100 | > 100 | > 100 | – | > 100 | > 100 | > 100 | > 100 | > 100 | > 100 | > 100 | > 100 | > 100 | > 100 | > 100 | –
3 | N#CC12C3C4CC5C6C4C1C6C(O)(C53)N2Cc1ccccc1 (stereo not drawn) | > 100 | > 100 | > 100 | > 100 | > 100 | > 100 | > 100 | > 100 | > 100 | > 100 | > 100 | – | – | > 100 | > 100 | – | –
4 | COC(=O)c1c(C(=O)OC)c2cc(C(=O)c3ccccc3)ccn2c1Cl | > 100 | 50.8 | 88.1 | – | 54.2 | > 100 | > 100 | > 100 | – | 55.4 | > 100 | – | – | 51.7 | 64.7 | – | –
5 | CC(C)(C)[C@H]1CO[C@]2(C)[C@@H]3C[C@@H]3C(=O)N12 | > 100 | > 100 | > 100 | > 100 | > 100 | > 100 | > 100 | > 100 | > 100 | > 100 | > 100 | – | – | > 100 | > 100 | – | –
6 | O=C(c1ccncc1)n1nc(-c2ccccc2)c(N=Nc2ccc([N+](=O)[O-])cc2)c1-c1ccccc1 | – | > 100 | > 100 | > 100 | > 100 | > 100 | – | > 100 | > 100 | > 100 | > 100 | – | – | > 100 | > 100 | – | –
7 | COc1ccc2c3ccc4c(c3n(C)c2c1)C(=O)c1ccccc1C4=O | – | > 100 | > 100 | > 100 | > 100 | > 100 | > 100 | – | > 100 | > 100 | > 100 | – | – | > 100 | > 100 | – | –
8 | Cc1cc2oc(=O)[nH]c(=S)c2c(C)c1C | > 100 | > 100 | > 100 | > 100 | > 100 | > 100 | > 100 | > 100 | > 100 | > 100 | > 100 | – | – | > 100 | > 100 | – | –
9 | CSc1cc(Cl)c(C)cc1S(=O)(=O)NC(=O)NNc1ccc(F)c(Cl)c1 | > 100 | > 100 | – | – | – | > 100 | > 100 | > 100 | – | > 100 | > 100 | > 100 | > 100 | – | > 100 | > 100 | –
10 | CCN(CC)Cc1cc(Nc2c3ccccc3nc3c2[nH]c2ccccc23)ccc1O | 2.71 | 2.33 | 2.8 | 4.45 | – | 2.74 | 3.25 | 2.75 | 3.46 | 3.35 | 6.22 | – | – | 5.83 | 5.06 | – | –
11 | COc1ccc(C2C(Cl)C(=O)N2NC(=O)Cc2ccccc2)cc1 (stereo not drawn) | > 100 | > 100 | > 100 | > 100 | > 100 | – | > 100 | > 100 | – | > 100 | > 100 | – | – | > 100 | > 100 | – | –
12 | COc1cc2[nH]c(-c3cccc(N(C)C)c3)cc(=O)c2cc1OC | > 100 | 17.6 | > 100 | > 100 | > 24.6 | > 21.3 | > 64.6 | – | > 100 | – | > 100 | – | – | > 100 | > 25.3 | – | –
13 | CC1[C@@H](OCc2ccccc2)COC(=O)N1Cc1ccccc1 (stereo partly drawn) | – | – | > 100 | > 100 | – | – | > 100 | > 100 | 92.9 | > 100 | > 100 | > 100 | > 100 | > 100 | > 100 | > 100 | –
14 | CC1=NN(C(=O)Cc2ccccc2)C(=O)/C1=C\C=C\c1ccccc1 | – | > 100 | > 100 | > 100 | > 100 | > 100 | > 100 | > 100 | – | > 100 | > 100 | – | – | > 100 | > 100 | – | –
15 | [N-]=[N+]=NC1C(Br)C(=O)NC(=O)N1[C@H]1C[C@H](O)[C@@H](CO)O1 (stereo partly drawn) | > 100 | > 100 | > 100 | > 100 | > 100 | > 100 | – | > 100 | > 100 | > 100 | > 100 | – | – | > 100 | – | – | 19.6
